Assay results: BindingDB's records for doi:10.1021/jm8000949 (China Pharmaceutical University, 2008)

Molecular target: T1, Glycogen phosphorylase, muscle form (Oryctolagus cuniculus, UniProt P00489)
T1 sequence (P00489 whole entry): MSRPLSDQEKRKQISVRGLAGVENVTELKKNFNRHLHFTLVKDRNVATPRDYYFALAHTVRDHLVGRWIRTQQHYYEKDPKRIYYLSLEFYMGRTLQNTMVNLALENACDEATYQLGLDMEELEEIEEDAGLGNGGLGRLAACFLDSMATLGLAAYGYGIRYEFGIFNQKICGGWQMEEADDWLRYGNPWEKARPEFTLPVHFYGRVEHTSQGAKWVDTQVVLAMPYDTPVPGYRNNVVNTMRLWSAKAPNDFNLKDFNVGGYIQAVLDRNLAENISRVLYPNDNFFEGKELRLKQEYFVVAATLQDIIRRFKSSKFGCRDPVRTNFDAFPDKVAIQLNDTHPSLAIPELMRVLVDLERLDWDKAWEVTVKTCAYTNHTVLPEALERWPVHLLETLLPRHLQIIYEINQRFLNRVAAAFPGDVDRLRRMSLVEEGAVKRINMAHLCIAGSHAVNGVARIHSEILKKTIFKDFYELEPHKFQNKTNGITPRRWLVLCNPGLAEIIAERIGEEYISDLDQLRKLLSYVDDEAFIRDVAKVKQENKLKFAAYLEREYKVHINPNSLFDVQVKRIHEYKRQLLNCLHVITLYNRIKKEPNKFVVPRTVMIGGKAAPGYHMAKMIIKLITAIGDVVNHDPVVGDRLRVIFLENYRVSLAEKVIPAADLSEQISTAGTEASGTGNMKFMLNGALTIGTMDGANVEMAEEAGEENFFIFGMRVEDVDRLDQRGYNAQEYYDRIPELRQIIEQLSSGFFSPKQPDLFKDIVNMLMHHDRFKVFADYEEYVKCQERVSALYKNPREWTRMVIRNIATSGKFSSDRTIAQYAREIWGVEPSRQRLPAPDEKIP
Test: Enzyme Inhibition Assay
Settings: pH 7.2; 22 °C
Method: The activity of the compounds is determined by measuring the inhibitory effect of the compounds in the direction of glycogen synthesis, the conversion of glucose-1-phosphate into glycogen with the release of inorganic phosphate, which was monitored using microplate reader (BIO-RAD). […] The IC50 values were estimated by fitting the inhibition data to a dose dependent curve using a logistic derivative equation.

Structure (SMILES)	IC50 [µM]
C[C@H]1[C@H](C)CC[C@]2(C(=O)O[C@@H]3O[C@H](CO)[C@@H](O)[C@H](O)[C@H]3O)CC[C@]3(C)C(=CC[C@@H]4[C@@]5(C)C[C@@H](O)[C@H](O)C(C)(C)C5CC[C@]43C)[C@H]12 (stereo partly drawn) [(2S,3R,4S,5S,6R)-3,4,5-trihydroxy-6-(hydroxymethyl)oxan-2-yl (1S,2R,4aS,6aS,6bR,10R,11R,12aR,12bR,14bS)-10,11-dihydroxy-1,2,6a,6b,9,9,12a-heptamethyl-1,2,3,4,4a,5,6,6a,6b,7,8,8a,9,10,11,12,12a,12b,13,14b-icosahydropicene-4a-carboxylate]	106
CC1(C)CC[C@]2(C(=O)O[C@@H]3O[C@H](CO)[C@@H](O)[C@H](O)[C@H]3O)CC[C@]3(C)C(=CC[C@@H]4[C@@]5(C)CC[C@H](O)C(C)(C)C5CC[C@]43C)[C@@H]2C1 (stereo partly drawn) [(2S,3R,4S,5S,6R)-3,4,5-trihydroxy-6-(hydroxymethyl)oxan-2-yl (4aS,6aS,6bR,10S,12aR,12bR,14bS)-10-hydroxy-2,2,6a,6b,9,9,12a-heptamethyl-1,2,3,4,4a,5,6,6a,6b,7,8,8a,9,10,11,12,12a,12b,13,14b-icosahydropicene-4a-carboxylate]	293
CC1(C)C2CC[C@]3(C)[C@H](CC=C4[C@@H]5C[C@@](C)(C(=O)O)CC[C@]5(C)CC[C@]43C)[C@@]2(C)CC[C@@H]1O (stereo partly drawn) [(2S,4aS,6aS,6bR,10S,12aR,12bR,14bR)-10-hydroxy-2,4a,6a,6b,9,9,12a-heptamethyl-1,2,3,4,4a,5,6,6a,6b,7,8,8a,9,10,11,12,12a,12b,13,14b-icosahydropicene-2-carboxylic acid]	82
CC1(C)C2CC[C@]3(C)[C@H](C(=O)C=C4[C@@H]5C[C@@](C)(C(=O)O)CC[C@]5(C)CC[C@]43C)[C@@]2(C)CC[C@@H]1O[C@H]1O[C@H](C(=O)O)[C@@H](O)[C@H](O)[C@H]1O[C@@H]1O[C@H](C(=O)O)[C@@H](O)[C@H](O)[C@H]1O (stereo not given in full) [pentacyclic triterpene compound 7]	822
C[C@H]1[C@H](C)CC[C@]2(C(=O)O[C@@H]3O[C@H](CO)[C@@H](O)[C@H](O)[C@H]3O)CC[C@]3(C)C(=CC[C@@H]4[C@@]5(C)CC[C@H](O)C(C)(C)C5CC[C@]43C)[C@H]12 (stereo not given in full) [pentacyclic triterpene compound 19]	97

These reach a lower IC50. Values come first.

IC50 [µM]	Structure (SMILES)
66	CC1(C)C2CC[C@]3(C)[C@H](C(=O)C=C4[C@@H]5C[C@@](C)(C(=O)O)CC[C@]5(C)CC[C@]43C)[C@@]2(C)CC[C@@H]1O (stereo partly drawn) [(2S,4aS,6aS,6bR,10S,12aS,12bR,14bR)-10-hydroxy-2,4a,6a,6b,9,9,12a-heptamethyl-13-oxo-1,2,3,4,4a,5,6,6a,6b,7,8,8a,9,10,11,12,12a,12b,13,14b-icosahydropicene-2-carboxylic acid]
57	C[C@H]1[C@H](C)CC[C@]2(C(=O)O)CC[C@]3(C)C(=CC[C@@H]4[C@@]5(C)CCC(=O)C(C)(C)C5CC[C@]43C)[C@H]12 (stereo partly drawn) [(1S,2R,4aS,6aS,6bR,12aR,12bR,14bS)-1,2,6a,6b,9,9,12a-heptamethyl-10-oxo-1,2,3,4,4a,5,6,6a,6b,7,8,8a,9,10,11,12,12a,12b,13,14b-icosahydropicene-4a-carboxylic acid]
19	C[C@H]1[C@H](C)CC[C@]2(C(=O)O)CC[C@]3(C)C(=CC[C@@H]4[C@@]5(C)CC[C@@H](O)C(C)(C)C5CC[C@]43C)[C@H]12 (stereo partly drawn) [(1S,2R,4aS,6aS,6bR,10R,12aR,12bR,14bS)-10-hydroxy-1,2,6a,6b,9,9,12a-heptamethyl-1,2,3,4,4a,5,6,6a,6b,7,8,8a,9,10,11,12,12a,12b,13,14b-icosahydropicene-4a-carboxylic acid]
18	CC1(C)CC[C@]2(C(=O)O)CC[C@]3(C)C(=CC[C@@H]4[C@@]5(C)CCC(=O)C(C)(C)C5CC[C@]43C)[C@@H]2C1 (stereo not given in full) [pentacyclic triterpene compound 6]
9	C[C@H]1[C@H](C)CC[C@]2(C(=O)O)CC[C@]3(C)C(=CC[C@@H]4[C@@]5(C)CC[C@H](O)C(C)(C)C5CC[C@]43C)[C@H]12 (stereo partly drawn) [(1S,2R,4aS,6aS,6bR,10S,12aR,12bR,14bS)-10-hydroxy-1,2,6a,6b,9,9,12a-heptamethyl-1,2,3,4,4a,5,6,6a,6b,7,8,8a,9,10,11,12,12a,12b,13,14b-icosahydropicene-4a-carboxylic acid]
